Data on 31 compounds can be found in patent publication US12509454B2, “Thiadiazolyl derivatives” (IDEAYA Biosciences, Inc., priority 2019, dated 2025).

Each structure is given as a SMILES string. Bounds are passed on as bounds.

The target of this test is Pol theta (1-899) (Homo sapiens (Human), UniProt O75417). The test is described as follows: Pol theta ATPase activity, NADH oxidation-coupled enzymatic assay. The following applies: Pol theta (1-899) 10 nM, ATP, dT50 ssDNA, absorbance 340 nm, 10-point dilution series; read-out: ATPase NADH coupling:Standard Screening:hPolQ IC50. Format: biochemical. The essentials: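 Pol theta (1-899), 10 nM, preincubated 15 min at RT with 10-point compound series in Tris pH 7.80/KCl/MgCl2 buffer, then given 100 μM ATP plus 300 nM dT50 ssDNA with PK/LDH-coupled NADH oxidation. A340 followed for 30 min; rate slopes fitted with a four-parameter model for IC50.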
Pol theta (1-899), sequence (O75417 1-899): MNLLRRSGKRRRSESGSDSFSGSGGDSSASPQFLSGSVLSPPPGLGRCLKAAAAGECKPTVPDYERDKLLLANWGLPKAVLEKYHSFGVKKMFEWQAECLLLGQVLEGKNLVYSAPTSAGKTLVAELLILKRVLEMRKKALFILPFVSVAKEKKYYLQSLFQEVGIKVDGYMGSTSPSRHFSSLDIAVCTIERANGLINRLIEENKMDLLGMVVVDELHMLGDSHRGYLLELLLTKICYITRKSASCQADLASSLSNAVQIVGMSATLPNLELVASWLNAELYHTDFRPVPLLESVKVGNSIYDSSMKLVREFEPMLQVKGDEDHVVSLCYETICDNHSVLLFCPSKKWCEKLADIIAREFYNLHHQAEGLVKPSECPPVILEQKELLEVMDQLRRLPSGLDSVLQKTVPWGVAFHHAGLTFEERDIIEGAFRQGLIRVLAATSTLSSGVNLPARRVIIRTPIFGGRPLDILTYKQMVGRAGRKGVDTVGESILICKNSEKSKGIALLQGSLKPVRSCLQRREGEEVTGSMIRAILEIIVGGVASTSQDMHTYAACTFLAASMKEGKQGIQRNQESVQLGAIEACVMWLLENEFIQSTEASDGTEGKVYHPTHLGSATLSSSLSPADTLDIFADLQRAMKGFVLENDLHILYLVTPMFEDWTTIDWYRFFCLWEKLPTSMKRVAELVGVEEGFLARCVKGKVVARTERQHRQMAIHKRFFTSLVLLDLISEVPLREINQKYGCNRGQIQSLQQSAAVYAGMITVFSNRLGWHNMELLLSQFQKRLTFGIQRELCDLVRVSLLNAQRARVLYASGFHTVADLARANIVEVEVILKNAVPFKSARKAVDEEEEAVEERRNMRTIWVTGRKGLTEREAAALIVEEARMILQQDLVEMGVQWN

As usually defined, the IC50 is the concentration that inhibits the measured activity by half. Regarding `COc1ccccc1-c1ccncc1C(=O)Nc1nnc(OCC2CC2)s1` [Example 90, N-(5-(cyclopropylmethoxy)-1,3,4-thiadiazol-2-yl)-4-(2-methoxyphenyl)nicotinamide], the IC50 is 0.5 to 1 µM. The value for `O=C(Nc1nnc(OCc2ccc(Cl)cc2)s1)c1cccnc1N1CCCOCC1` [Example 6, N-(5-((4-chlorobenzyl)oxy)-1,3,4-thiadiazol-2-yl)-2-(1,4-oxazepan-4-yl)nicotinamide] was 0.2 to 0.5 µM; that for `O=C(Nc1nnc(OCc2ccc(Cl)cn2)s1)c1cccnc1N1CCS(=O)(=O)CC1` [Example 37, N-(5-((5-chloropyridin-2-yl)methoxy)-1,3,4-thiadiazol-2-yl)-2-(1,1-dioxidothiomorpholino)nicotinamide] was 1 to 10 µM; that for `COc1ccccc1-c1cc(C(=O)O)ncc1C(=O)Nc1nnc(OCc2ccc(Br)cc2)s1` [Example 152, 5-([5-[(4-bromophenyl)methoxy]-1,3,4-thiadiazol-2-yl]carbamoyl)-4-(2-methoxyphenyl)pyridine-2-carboxylic acid] was ≤ 0.2 µM. The value for `O=C(Nc1nnc(OCc2ccc(Cl)cn2)s1)c1cnnn1-c1ccccc1` [Example 25, N-(5-((5-chloropyridin-2-yl)methoxy)-1,3,4-thiadiazol-2-yl)-1-phenyl-1H-1,2,3-triazole-5-carboxamide] was 1 to 10 µM. Then `COc1c(CO)cccc1-c1cc(C)ncc1C(=O)Nc1nnc(OCc2ccc(Cl)cn2)s1` [Example 195, N-[5-[(5-chloropyridin-2-yl)methoxy]-1,3,4-thiadiazol-2-yl]-4-[3-(hydroxymethyl)-2-methoxyphenyl]-6-methylpyridine-3-carboxamide], with ≤ 0.2 µM. Regarding `O=C(Nc1nnc(OCc2ccc(Cl)cc2)s1)c1ccncc1N1CCOCC1` [Example 59, N-(5-((4-chlorobenzyl)oxy)-1,3,4-thiadiazol-2-yl)-3-morpholinoisonicotinamide], the IC50 fell in the range of 0.2 to 0.5 µM. Then `COc1ccc(C#N)cc1-c1cc(C)ncc1C(=O)Nc1nnc(OCc2ccc(Cl)cc2)s1` [Example 116, N-[5-[(4-chlorophenyl)methoxy]-1,3,4-thiadiazol-2-yl]-4-(5-cyano-2-methoxyphenyl)-6-methylpyridine-3-carboxamide], with ≤ 0.2 µM. The value for `O=C(Nc1nnc(OCc2ccc(Cl)cn2)s1)c1cncn1-c1ccccc1Cl` [Example 26, 3-(2-chlorophenyl)-N-[5-[(5-chloropyridin-2-yl)methoxy]-1,3,4-thiadiazol-2-yl]imidazole-4-carboxamide] was 0.2 to 0.5 µM. Then `COc1ccccc1-c1cnc(C#N)cc1C(=O)Nc1nnc(OCc2ccc(Cl)cc2)s1` [Example 151, N-(5-((4-chlorobenzyl)oxy)-1,3,4-thiadiazol-2-yl)-2-cyano-5-(2-methoxyphenyl)isonicotinamide], with ≤ 0.2 µM; and `COc1ccccc1-c1cc(C(F)(F)F)ncc1C(=O)Nc1nnc(OCc2ccc(Cl)cc2)s1` [Example 156, N-[5-[(4-chlorophenyl)methoxy]-1,3,4-thiadiazol-2-yl]-4-(2-methoxyphenyl)-6-(trifluoromethyl)pyridine-3-carboxamide], with ≤ 0.2 µM. In the case of `COc1cccc(F)c1-c1cc(C)ncc1C(=O)Nc1nnc(OCc2ccc(C3(C#N)CC3)cn2)s1` [Example 217, N-(5-((5-(1-cyanocyclopropyl)pyridin-2-yl)methoxy)-1,3,4-thiadiazol-2-yl)-4-(2-fluoro-6-methoxyphenyl)-6-methylnicotinamide], the IC50 was ≤ 0.2 µM. On to `CC(=O)Nc1cc(N2CCOCC2)c(C(=O)Nc2nnc(OCc3ccc(Cl)cc3)s2)cn1` [Example 78, 6-acetamido-N-(5-((4-chlorobenzyl)oxy)-1,3,4-thiadiazol-2-yl)-4-morpholinonicotinamide], for which the IC50 lay within 1 to 10 µM. In the case of `COc1ccccc1-c1cnc(F)cc1C(=O)Nc1nnc(OCc2ccc(Cl)cc2)s1` [Example 148, N-(5-((4-chlorobenzyl)oxy)-1,3,4-thiadiazol-2-yl)-2-fluoro-5-(2-methoxyphenyl)isonicotinamide], the IC50 was ≤ 0.2 µM. Then `O=C(Nc1nnc(OCc2ccc(Cl)cc2)s1)c1cccnc1N1CCN2C(=O)CC[C@H]2C1` (single isomer, unassigned) [Example 69, (R)—N-(5-((4-chlorobenzyl)oxy)-1,3,4-thiadiazol-2-yl)-2-(6-oxohexahydropyrrolo[1,2-a]pyrazin-2(1H)-yl)nicotinamide or (S)—N-(5-((4-chlorobenzyl)oxy)-1,3,4-thiadiazol-2-yl)-2-(6-oxohexahydropyrrolo[1,2-a]pyrazin-2(1H)-yl)nicotinamide], with 1 to 10 µM; and `O=C(Nc1nnc(OCc2ccc(Cl)cc2)s1)c1cccnc1N1CCN2C(=O)CC[C@@H]2C1` (single isomer, unassigned) [Example 70, (R)—N-(5-((4-chlorobenzyl)oxy)-1,3,4-thiadiazol-2-yl)-2-(6-oxohexahydropyrrolo-[1,2-a]pyrazin-2(1H)-yl)nicotinamide or (S)—N-(5-((4-chlorobenzyl)oxy)-1,3,4-thiadiazol-2-yl)-2-(6-oxohexahydropyrrolo[1,2-a]pyrazin-2(1H)-yl)nicotinamide], with 0.5 to 1 µM; and `COc1cccc(F)c1-c1cc(C#N)ncc1C(=O)Nc1nnc(OCc2ccc(Cl)cn2)s1` [Example 186, N-(5-((5-chloropyridin-2-yl)methoxy)-1,3,4-thiadiazol-2-yl)-6-cyano-4-(2-fluoro-6-methoxyphenyl)nicotinamide], with ≤ 0.2 µM.

On to `O=C(Nc1nnc(OCc2ccc(Cl)cc2)s1)c1ccncc1-c1cccc2nsnc12` [Example 103, 3-(benzo[c][1,2,5]thiadiazol-4-yl)-N-(5-((4-chlorobenzyl)oxy)-1,3,4-thiadiazol-2-yl)isonicotinamide], for which the IC50 is ≤ 0.2 µM.

With `COc1ccccc1-c1cc(C(C)(C)O)ncc1C(=O)Nc1nnc(OCc2ccc(Cl)cn2)s1` [Example 207, N-(5-((5-chloropyridin-2-yl)methoxy)-1,3,4-thiadiazol-2-yl)-6-(2-hydroxypropan-2-yl)-4-(2-methoxyphenyl)nicotinamide], the IC50 fell in the range of 1 to 10 µM. Turning to `Cc1cc(-c2ccccc2OC(F)F)c(C(=O)Nc2nnc(OCc3ccc(C4(C#N)CC4)cn3)s2)cn1` [Example 218, N-(5-[[5-(1-cyanocyclopropyl)pyridin-2-yl]methoxy]-1,3,4-thiadiazol-2-yl)-4-[2-(difluoromethoxy)phenyl]-6-methylpyridine-3-carboxamide], the IC50 was ≤ 0.2 µM.

As to `COc1ccccc1-c1cc(C)ncc1C(=O)Nc1nnc(OCc2cc(F)ccn2)s1` [Example 199, N-(5-((4-fluoropyridin-2-yl)methoxy)-1,3,4-thiadiazol-2-yl)-4-(2-methoxyphenyl)-6-methylnicotinamide], the IC50 fell in the range of 0.2 to 0.5 µM. Then `N#Cc1ccc(OC2COC2)c(-c2cnccc2C(=O)Nc2nnc(OCc3ccc(Cl)cc3)s2)c1` [Example 172, N-(5-((4-chlorobenzyl)oxy)-1,3,4-thiadiazol-2-yl)-3-(5-cyano-2-(oxetan-3-yloxy)phenyl)isonicotinamide], with ≤ 0.2 µM.

As for `O=C(Nc1nnc(OCc2ccc(Cl)cc2)s1)c1cnncc1-c1ccccc1OC(F)F` [Example 112, N-(5-((4-chlorobenzyl)oxy)-1,3,4-thiadiazol-2-yl)-5-(2-(difluoromethoxy)phenyl)pyridazine-4-carboxamide], the IC50 is ≤ 0.2 µM. The value for `COc1ccccc1-c1cc(C)ncc1C(=O)Nc1nnc(O[C@@H](C)c2ccc(Cl)cc2)s1` [Example 202, N-[5-[(1S)-1-(4-chlorophenyl)ethoxy]-1,3,4-thiadiazol-2-yl]-4-(2-methoxyphenyl)-6-methylpyridine-3-carboxamide] was ≤ 0.2 µM; that for `COc1ccccc1-c1cc(CN)ncc1C(=O)Nc1nnc(OCc2ccc(Cl)cn2)s1` [Example 204, 6-(aminomethyl)-N-[5-[(5-chloropyridin-2-yl)methoxy]-1,3,4-thiadiazol-2-yl]-4-(2-methoxyphenyl)pyridine-3-carboxamide] was 1 to 10 µM; that for `COc1cccc(Cl)c1-c1cnccc1C(=O)Nc1nnc(OCc2ccc(Cl)cc2)s1` [Example 125, 3-(2-chloro-6-methoxyphenyl)-N-(5-((4-chlorobenzyl)oxy)-1,3,4-thiadiazol-2-yl)isonicotinamide] was ≤ 0.2 µM. Then `CN(C)C(=O)c1cc(N2CCOCC2)c(C(=O)Nc2nnc(OCc3ccc(Cl)cc3)s2)cn1` [Example 73, N^5-(5-((4-chlorobenzyl)oxy)-1,3,4-thiadiazol-2-yl)-N2,N2-dimethyl-4-morpholinopyridine-2,5-dicarboxamide], with 1 to 10 µM; and `O=C(Nc1nnc(OCc2ccc(Cl)cc2)s1)c1cnccc1-c1ccccc1OC1CC1` [Example 93, N-(5-((4-chlorobenzyl)oxy)-1,3,4-thiadiazol-2-yl)-4-(2-cyclopropoxyphenyl)nicotinamide], with ≤ 0.2 µM. The value for `Cc1n[nH]c(C)c1-c1cnccc1C(=O)Nc1nnc(OCc2ccc(Cl)cc2)s1` [Example 140, N-[5-[(4-chlorophenyl)methoxy]-1,3,4-thiadiazol-2-yl]-3-(3,5-dimethyl-1H-pyrazol-4-yl)pyridine-4-carboxamide] was ≤ 0.2 µM; that for `COc1ccccc1-c1cc([C@@H](C)O)ncc1C(=O)Nc1nnc(OCc2ccc(Cl)cc2)s1` (racemic) [Example 167, N-[5-[(4-chlorophenyl)methoxy]-1,3,4-thiadiazol-2-yl]-6-(1-hydroxyethyl)-4-(2-methoxyphenyl)pyridine-3-carboxamide] was 0.2 to 0.5 µM; that for `COc1cccc(F)c1-c1cc(C)ncc1C(=O)Nc1nnc(OCc2ccc(Cl)cn2)s1` [Example 184, N-(5-((5-chloropyridin-2-yl)methoxy)-1,3,4-thiadiazol-2-yl)-4-(2-fluoro-6-methoxyphenyl)-6-methylnicotinamide] was ≤ 0.2 µM.
